Experimental data as given in patent US6426355B1, “Heterocyclic carboxamide-containing thiourea inhibitors of herpes viruses containing phenylenediamine group” (American Home Products, priority 1998, dated 2002).
Values after ≈ are worked out from the molar mass of the structure shown.

Key:
VZV strain Ellen = test: VZV Antiviral (ELISA) assay; type: cell-based; conditions: for IC50 (ug/ml) VZV / % inhibition 10 ug/ml VZV: VZV strain Ellen in HFF cells; for % inhibition 10 ug/ml VZV: at 10 ug/ml; for inhibition at 10 µg/mL: Human alphaherpesvirus 3, read-out: % inhibition 10 ug/ml VZV, at 10 ug/ml, VZV strain Ellen in HFF cells; for IC50: Human alphaherpesvirus 3, VZV strain Ellen in HFF cells, read-out: IC50 (ug/ml) VZV
Outline: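 Cell-based ELISA: infected/uninfected HFF mix (VZV Ellen, MOI <0.1) exposed to compound in DMEM/2% FBS for 3 days at 37° C. Anti-gpII monoclonal plus β-galactosidase-linked secondary, detected as 4-methylumbelliferone fluorescence; IC50 derived by comparing fluorescence with versus without compound.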

HSV-1 = test: HSV Antiviral (ELISA) assay; type: cell-based; conditions: for IC50 (ug/ml) HSV: HSV-1 in Vero cells; for IC50: Human alphaherpesvirus 1, HSV-1 in Vero cells, read-out: IC50 (ug/ml) HSV
Outline: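 Replication measured as glycoprotein D signal in fixed cells: anti-gD antibody plus β-galactosidase-linked secondary, fluorogenic substrate read at 365/450 nm. Vero cells (2% FBS DMEM) received compound 30 min pre-infection, HSV-1 MOI 0.006, ~24 h incubation; IC50 relative to no-compound fluorescence.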

[1] = tested on: HCMV recombinant mutant virus (RV145); test: HCMV microtiter plate assay (beta-glucuronidase reporter); type: cell-based, Human Cytomegalovirus; conditions: for IC50 (ug/ml) HCMV: HCMV in human foreskin fibroblasts; for IC50: Human betaherpesvirus 5, Fibroblast, read-out: IC50 (ug/ml) HCMV
Outline: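 Replication was read out as virus-encoded β-glucuronidase activity, measured with a chromogenic or fluorogenic glucuronide substrate in cell lysates at 96 h post-infection. Infection of human foreskin fibroblasts with RV145 took place with compound present. IC50 was derived from a range of inhibitor amounts.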

Row | Compound | IC50 (ug/ml) VZV (VZV strain Ellen) [µg/mL] | % inhibition 10 ug/ml VZV (VZV strain Ellen) [%] | IC50 (ug/ml) HSV (HSV-1) [µg/mL] | IC50 (ug/ml) HCMV [1] [µg/mL] | inhibition at 10 µg/mL (VZV strain Ellen) [%] | IC50 (HSV-1) [µg/mL] | IC50 [1] [µg/mL] | IC50 (VZV strain Ellen) [µg/mL]
1 | CC(O)c1cccc(NC(=S)Nc2ccc(NC(=O)c3ccco3)cc2)c1 (stereo not shown) [Example 472] | >10 | 31 | >10 | 0.8 (≈ 2.1 µM) | – | – | – | –
2 | O=C(Nc1ccc(NC(=S)Nc2ccc(Cl)c(C(F)(F)F)c2)cc1)c1ccccn1 [Example 379] | >10 | 27 | >10 | >10 | – | – | – | –
3 | COC(=O)c1cc(NC(=S)Nc2ccc(NC(=O)c3csnn3)cc2)cc(C(=O)OC)c1 [Example 485] | >10 | 11 | >10 | 0.03 (≈ 0.0636 µM) | – | – | – | –
4 | COc1cc(OC)c(NC(=S)Nc2ccc(NC(=O)c3cc4ccccc4s3)cc2)cc1Cl [Example 153] | >10 | 8 | 2 (≈ 4.02 µM) | >10 | – | – | – | –
5 | Nc1cccc(NC(=S)Nc2ccc(NC(=O)c3ccco3)cc2)c1 [Example 430] | >10 | – | >10 | 0.4 (≈ 1.14 µM) | – | – | – | –
6 | CN(c1ccc(NC(=S)Nc2ccc(NC(=O)c3csnn3)cc2)cc1Cl)C1CCCCC1 [Example 237] | >10 | 17 | >10 | 0.02 (≈ 0.0399 µM) | – | – | – | –
7 | N#Cc1cccc(NC(=S)Nc2ccc(NC(=O)c3ccco3)cc2)c1 [Example 441] | >10 | – | >10 | 0.17 (≈ 0.469 µM) | – | – | – | –
8 | O=C(Nc1ccc(NC(=S)Nc2ccc(Br)c(Cl)c2)cc1)c1ccccc1F [Example 965, N-{4-[3-(4-Bromo-3-chloro-phenyl)-thioureido]-phenyl} -2-fluoro-benzamide] | – | – | – | – | 36 | > 10 | 0.008 (≈ 0.0167 µM) | –
9 | O=C(Nc1ccc(NC(=S)Nc2ccc(Cl)c(Cl)c2)cc1)c1csc(-c2ccccc2)n1 [Example 1143, 2-Phenyl-thiazole-4-carboxylic acid {4-[3-(3,4-dichloro-phenyl)-thioureido]-phenyl}-amide] | – | – | – | – | – | > 10 | 7.5 (≈ 15 µM) | > 10
10 | O=C(Nc1ccc(NC(=S)Nc2ccc(Br)c(Cl)c2)cc1)c1csnn1 [Example 970, [1,2,3]Thiadiazole-4-carboxylic acid {4-[3-(4-bromo-3-chloro-phenyl)-thioureido]-phenyl}-amide] | – | – | – | – | 16 | > 10 | 0.06 (≈ 0.128 µM) | > 10
11 | CC(C)c1cccc(NC(=S)Nc2ccc(NC(=O)c3csnn3)cc2)c1 [Example 450] | >10 | – | >10 | 0.05 (≈ 0.126 µM) | – | – | – | –
12 | O=C(Nc1ccc(NC(=S)Nc2ccc(SC(F)(F)F)c(Cl)c2)cc1)c1ccco1 [Example 551] | >10 | – | >10 | 0.043 (≈ 0.0911 µM) | – | – | – | –
13 | Nc1c(Cl)cc(C(F)(F)F)cc1NC(=S)Nc1ccc(NC(=O)c2csnn2)cc1 [Example 534] | >10 | – | 7 (≈ 14.8 µM) | 0.05 (≈ 0.106 µM) | – | – | – | –
14 | O=C(Nc1ccc(NC(=S)NNc2cccc(Cl)c2)cc1)c1ccco1 [Example 528] | 5 (≈ 12.9 µM) | 107 | 3.2 (≈ 8.27 µM) | 0.25 (≈ 0.646 µM) | – | – | – | –
